For series [1], the system named is rat liver microsomes (RLMs). In words: Enzymatic kinetics of axitinib inhibition of buspirone metabolism in RLMs. It counts as in vitro ADME.
Series [2] can be described thus: Pharmacokinetics of buspirone and metabolites with or without axitinib in rats. It counts as in vivo, Sprague–Dawley rats. The settings on record: increased to % of group A.
For series [3] the following is noted: in vivo; cited from earlier work.
For series [4], the system named is buspirone 6′-hydroxylation (formation of 6′-OH buspirone). As to the kind of experiment: in vitro. The settings on record: rat, rat liver microsomes. (In general: Microsomes from liver hold many membrane-bound enzymes, among them those of drug oxidation.)
In series [5] the test system is buspirone N-dealkylation (formation of 1-PP). In words: in vitro. To be noted: rat, rat liver microsomes.
The nature of series [6]: Pharmacokinetic pre-experiment: ritonavir before buspirone in rats. The class given is in vivo. The settings on record: ritonavir (positive inhibitor) administered before buspirone.

Molecules are shown by their SMILES.

Regarding `CNC(=O)c1ccccc1Sc1ccc2c(/C=C/c3ccccn3)n[nH]c2c1` [axitinib], the α value in series [1] (buspirone 6′-hydroxylation) is 2.139; in series [1] (buspirone N-dealkylation), 5.434.

The Km is the substrate concentration at which the rate is half of its maximum. Regarding `O=C1CC2(CCCC2)CC(=O)N1CCCCN1CCN(c2ncccn2)CC1` [buspirone, 8-(4-(4-(2-pyrimidinyl)-1-piperizinyl)butyl)-8-azaspiro(4,5)decane-7,9-dione], in series [2], the “AUC(0-t), group B compared with group A” value is given as 530%; the “Cmax, group B compared with group A” value came out at 420%; the “Tmax, group B compared with group A” value is 150%. Besides, the “absorbed in the alimentary canal” value in series [3] is listed as about 100%. The Km at 40 min in series [4] worked out at 23 µM. In series [5], the Michaelis constant (Km) at 40 min came to 26.3 µM.

Consider `CC(C)c1nc(CN(C)C(=O)N[C@H](C(=O)N[C@@H](Cc2ccccc2)C[C@H](O)[C@H](Cc2ccccc2)NC(=O)OCc2cncs2)C(C)C)cs1` [ritonavir], for which, in series [6], the “blood concentrations of buspirone” value is “extremely high blood concentrations of buspirone”; the “symptoms compared with the control” value is “symptoms of inhibition of respiration and near-death”.

The values are drawn from publication PMC9252588 (Drug Design, Development and Therapy, 2022).
